Earlier results as cited in patent US20240325295A1, “AQUEOUS BUMETANIDE-CONTAINING LIQUID” (DriPel B.V., priority 2021, published 2024).
≈ marks a conversion by molar mass, not a printed value.

Assays:
[1] = at 25° C.
[2] = at 4° C.

Structure (SMILES): CCCCNc1cc(C(=O)O)cc(S(N)(=O)=O)c1Oc1ccccc1 [Bumetanide]
- water solubility [1]: 0.026 mg/mL (≈ 0.0713 mM)
- solubility in glycofurol ([2]; glycofurol): 167 mg/mL (≈ 458 mM)
- solubility in polyethylene glycol 200 ([2]; polyethylene glycol 200): 143 mg/mL (≈ 392 mM)
